Consider two compounds from PubChem BioAssay AID1963446 (Molecular Pharmacology Branch, DTP, NCI, 2024).

In this assay the test system is 993429-296-R-J1-PDC complex spheroid growth, percent test/control. Put plainly: Anticancer human tumor 993429-296-R-J1-PDC patient-derived uterine sarcoma cell line growth inhibition [Asc]. Conditions: for viability, T/C: stronger effect = lower value. A digest of the protocol: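 Tumor cells were grown as complex spheroids with human endothelial cells (HUVEC) and human mesenchymal stem cells as stroma. Agents were tested alone and in combination, in half-log steps down from the clinical Cmax, or from 10 microM where Cmax was unknown.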

Several values for one entry are separate records, joined by “and”; a condition that tells them apart may be missing. Equal values may be shown once. A value given as a limit tells only on which side of the number the result lay.
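Further: spheroids exposed to compounds for seven days.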

Turning to `CCN1C(C(=O)NC23CCC(C(=O)O)(CC2)CC3)C(c2cccc(Cl)c2F)C2(C(=O)Nc3cc(Cl)ccc32)C12CCCCC2` (configuration not stated) + Cc1c(S(C)(=O)=O)c(-c2cc(F)cc(N3CCN(c4ccc(NS(=O)(=O)c5ccc(NC(CCN6CCC(C(=O)OCCCP(=O)(O)O)CC6)CSc6ccccc6)c(S(=O)(=O)C(F)(F)F)c5)cc4)CC3)c2)c(-c2ccc(Cl)cc2)n1C(C)C, the IC50 (in general, the concentration that gives 50% inhibition) is, setting by setting: (curve of first compound, second compound 0.1 µM) > 3 µM; (curve of first compound, second compound 0.316 µM) 1.27 µM; (curve of first compound, second compound 1 µM) 0.951 µM; (curve of first compound, second compound 3.16 µM) < 0.00949 µM; (curve of first compound, second compound 10 µM) > 3 µM. Further, the viability, T/C (in general, the result in the treated group divided by that in the control group, in per cent) is, setting by setting: (second compound 0.1 µM, first compound 0.00949 µM) 88.1%; (second compound 0.1 µM, first compound 0.03 µM) 76.6%; (second compound 0.1 µM, first compound 0.0949 µM) 94.8%; (second compound 0.1 µM, first compound 0.3 µM) 66.4%; (second compound 0.1 µM, first compound 0.949 µM) 62.8%; (second compound 0.1 µM, first compound 3 µM) 58.5%. The viability, T/C is, setting by setting: (second compound 0.316 µM, first compound 0.00949 µM) 63.1%; (second compound 0.316 µM, first compound 0.03 µM) 68.6%; (second compound 0.316 µM, first compound 0.0949 µM) 68.4%; (second compound 0.316 µM, first compound 0.3 µM) 55.5%; (second compound 0.316 µM, first compound 0.949 µM) 54.8%; (second compound 0.316 µM, first compound 3 µM) 39.9%. The viability, T/C was 57.6% (second compound 1 µM, first compound 0.00949 µM); 50.8% (second compound 1 µM, first compound 0.03 µM); 50.7% (second compound 1 µM, first compound 0.0949 µM); 61.4% (second compound 1 µM, first compound 0.3 µM); 48% (second compound 1 µM, first compound 0.949 µM); 28.4% (second compound 1 µM, first compound 3 µM). Besides, the viability, T/C is 47.1% (second compound 3.16 µM, first compound 0.00949 µM); 51.9% (second compound 3.16 µM, first compound 0.03 µM); 43.1% (second compound 3.16 µM, first compound 0.0949 µM); 44.4% (second compound 3.16 µM, first compound 0.3 µM); 30.8% (second compound 3.16 µM, first compound 0.949 µM); 22.3% (second compound 3.16 µM, first compound 3 µM). Also, the viability, T/C is 81.3% (second compound 10 µM, first compound 0.00949 µM); 91.9% (second compound 10 µM, first compound 0.03 µM); 62.4% (second compound 10 µM, first compound 0.0949 µM); 67.7% (second compound 10 µM, first compound 0.3 µM); 78.2% (second compound 10 µM, first compound 0.949 µM); 51.1% (second compound 10 µM, first compound 3 µM).

For `C=C(F)C(=O)N1CCN(c2nc(OCC3CCCN3C)nc3c2CCN(c2cccc4cccc(Cl)c24)C3)CC1CC#N` (configuration not stated), the viability, T/C was 85.9% and 98.6% and 98.2% (compound 0.0316 µM); 93.5% and 103% and 95.2% (compound 0.1 µM); 82.5% and 88.7% and 91.7% (compound 0.316 µM); 43.8% and 63.6% and 99.8% (compound 1 µM); 6.98% and 7.87% and 29.6% (compound 3.16 µM); 0.4% and 0.19% and 0.21% (compound 10 µM). For the same compound, the IC50 (curve of compound) is 0.836 µM and 1.3 µM and 2.22 µM.
